From ChEMBL document CHEMBL4419121, “Tetrahydropyridopyrazines modulators of gpr6” (2018)

What follows are compounds tested against T1, G-protein coupled receptor 6 (Homo sapiens, UniProt P46095) (assay: Modulation activity at GPR6 receptor (unknown origin) expressed in CHO-K1 cells assessed as inhibition of constitutive cAMP activity incubated for 45 mins by Perkin Elmer Lance HTRF Ultrac-AMP assay). Conditions: not given.
Type: functional, cell-based

T1 sequence (P46095 whole entry): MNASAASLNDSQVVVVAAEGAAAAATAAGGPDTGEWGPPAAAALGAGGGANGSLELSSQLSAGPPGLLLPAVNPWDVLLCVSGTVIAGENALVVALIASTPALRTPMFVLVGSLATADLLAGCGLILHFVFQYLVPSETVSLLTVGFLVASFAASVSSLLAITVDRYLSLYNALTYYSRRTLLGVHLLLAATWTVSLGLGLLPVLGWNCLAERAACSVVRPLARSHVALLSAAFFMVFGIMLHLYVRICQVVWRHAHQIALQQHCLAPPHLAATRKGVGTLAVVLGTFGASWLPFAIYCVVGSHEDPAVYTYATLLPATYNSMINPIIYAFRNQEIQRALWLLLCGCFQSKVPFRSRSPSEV

SMILES | IC50 [nM]
CC(=O)N1CCc2nc(NC(C)C)c(N3CCC(C(F)c4ccc(F)cc4F)CC3)nc2C1 (centres undefined) | 8.5
CO[C@@H](C)C(=O)N1Cc2nc(N3CCC(Oc4ccc(F)cc4F)CC3)c(NCC(F)F)nc2CC1C (some centres undefined) | 20.9
CC(C)Nc1nc2c(nc1N1CCC(C(=O)c3cc(Cl)ccc3F)CC1)CN(C(=O)N(C)C)CC2 | 24.9
CC(C)Nc1nc2c(nc1N1CCC(Oc3ccc(F)cc3F)CC1)CN(C(=O)CC#N)CC2 | 18
CC(=O)N1CCc2nc(N3CCC(Oc4ccc(F)cc4F)CC3)c(NCC(F)F)nc2C1C (centres undefined) | 178
CC(=O)N1Cc2nc(N3CCC(Oc4ccc(F)cc4F)CC3)c(NCC(F)F)nc2CC1C (centres undefined) | 24.9
CC1c2nc(N3CCC(Oc4ccc(F)cc4F)CC3)c(NCC(F)F)nc2CCN1S(C)(=O)=O (centres undefined) | 52
COc1ccc(OC2CCN(c3nc4c(nc3NC(C)C)CCN(C)C4)CC2)c(F)c1 | 26.6
CC(=O)N1CCc2nc(NC(C)C)c(N3CCC(Oc4ccc(C#N)cc4F)CC3)nc2C1 | 105
COC(C)C(=O)N1CCc2nc(N3CCC(Oc4ccc(F)cc4F)CC3)c(NC(C)C)nc2C1 (centres undefined) | 16.8
CC1Cc2nc(NCC(F)F)c(N3CCC(Oc4ccc(F)cc4F)CC3)nc2CN1C(=O)N(C)C (centres undefined) | 31.4
COc1ccc(OC2CCN(c3nc4c(nc3NC3CCC3)CN(C(C)=O)CC4)CC2)c(F)c1 | 19.9
COCC(=O)N1Cc2nc(N3CCC(Oc4ccc(F)cc4F)CC3)c(NCC(F)F)nc2CC1C (centres undefined) | 23
CC(C)Nc1nc2c(nc1N1CCC(Oc3ccc(F)cc3F)CC1)CCN(S(=O)(=O)C(C)C)C2 | 149
CO[C@@H](C)C(=O)N1CCc2nc(NCC(F)F)c(N3CCC(Oc4ccc(F)cc4F)CC3)nc2C1 | 8.3
CC(C)Nc1nc2c(nc1N1CCC(Oc3ccc(F)cc3F)CC1)CN(C(=O)N(C)C)CC2 | 13.8
COc1ccc(OC2CCN(c3nc4c(nc3NC(C)C)CN(C(=O)N(C)C)CC4)CC2)c(F)c1 | 35
CO[C@H](C)C(=O)N1CCc2nc(NCC(F)F)c(N3CCC(Oc4ccc(F)cc4F)CC3)nc2C1 | 6.6
COCC(=O)N1CCc2nc(N3CCC(Oc4ccc(F)cc4F)CC3)c(NCC(F)F)nc2C1C (centres undefined) | 208
CC(C)Nc1nc2c(nc1N1CCC(Oc3ccc(F)cc3F)CC1)CCN(C(=O)N1CCOCC1)C2 | 62.6
CC(C)Nc1nc2c(nc1N1CCC(C(F)c3ccc(F)cc3F)CC1)CCN(C(=O)N(C)C)C2 (centres undefined) | 19.7

What follows are compounds tested against T1, G-protein coupled receptor 6 (assay: Modulation activity at GPR6 receptor (unknown origin) expressed in CHO-K1 cells assessed as inhibition of constitutive cAMP activity incubated for 45 mins in presence of 300 uM IBMX by Perkin Elmer Lance HTRF Ultrac-AMP assay). Conditions: not given.
Type: functional, cell-based

SMILES | IC50 [nM]
COC[C@H](C)Nc1nc2c(nc1N1CCC(Oc3ccc(F)cc3F)CC1)CCN(C(C)=O)C2 | 107
COC[C@@H](C)Nc1nc2c(nc1N1CCC(Oc3ccc(F)cc3F)CC1)CCN(C(C)=O)C2 | > 1000
[2H]C([2H])([2H])C(=O)N1CCc2nc(N3CCC(Oc4ccc(F)cc4F)CC3)c(NC(C)C)nc2C1 | 33.7

Same assay, conditions: cho-k1

SMILES | IC50 [nM]
CC(=O)O[C@H]1C[C@@H](Nc2nc3c(nc2N2CCN(Cc4ccc(F)cc4F)CC2)CCN(C(C)=O)C3)C1 | 220
CC(C)Nc1nc2c(nc1N1CCC(Oc3ccc(F)cc3F)CC1)CCN(S(C)(=O)=O)C2 | 61.8
COc1ccc(OC2CCN(c3nc4c(nc3NC(C)C)CN(C(C)=O)CC4)CC2)c(F)c1 | 74.1
CCC(=O)N1CCc2nc(N3CCN(Cc4ccc(F)cc4F)CC3)c(N[C@H]3CCOC3)nc2C1 | 59.1
CC(=O)O[C@H]1C[C@@H](Nc2nc3c(nc2N2CCC(Oc4ccc(F)cc4F)CC2)CCN(C(C)=O)C3)C1 | 114
CS(=O)(=O)N1CCc2nc(N3CCC(Oc4ccc(F)cc4F)CC3)c(NC3CCC3)nc2C1 | 49.3
CC(C)Nc1nc2c(nc1N1CCC(Oc3ccc(F)cc3F)CC1)CCN(C(=O)C(F)F)C2C (centres undefined) | 95
CC(=O)N1CCc2nc(NC(C)C)c(N3CCC(S(=O)(=O)c4ccc(F)cc4)CC3)nc2C1 | 188
COC(=O)N1CCc2nc(NC(C)C)c(N3CCC(Oc4ccc(F)cc4F)CC3)nc2C1 | 132
CC(C)Nc1nc2c(nc1N1CCC(Oc3ccc(F)cc3F)CC1)CCN(C)C2 | 90.1
CC(C)Nc1nc2c(nc1N1CCC(Oc3ccc(F)cc3F)CC1)CN(C)CC2 | 59.5
CC(=O)N1CCc2nc(N3CCN(Cc4ccc(F)cc4F)CC3)c(N[C@H]3C[C@H](F)C3)nc2C1 | 186
CC(C)Nc1nc2c(nc1N1CCC(Oc3ccc(F)cc3F)CC1)CCN(CCF)C2 | 74.8
CC(C)Nc1nc2c(nc1N1CCC(Oc3ccc(F)cc3F)CC1)C(C)N(C(=O)N(C)C)CC2 (centres undefined) | 179
CC(C)Nc1nc2c(nc1N1CCC(Oc3ccc(F)cc3F)CC1)CCN(C(=O)N(C)C)C2C (centres undefined) | 110
CC(C)Nc1nc2c(nc1N1CCC([C@@H](F)c3ccc(F)cc3F)CC1)CCN(C=O)C2 | 23.6
CC(=O)N1CCc2nc(N3CCC(Oc4ccc(F)cc4F)CC3)c(NCC(F)F)nc2C1 | 49.7
CC(=O)N1CCc2nc(N3CCC(Oc4ccc(F)cc4F)CC3)c(NC3CC(F)(F)C3)nc2C1 | 35.9
COc1cccc(S(=O)(=O)C2CCN(c3nc4c(nc3NC(C)C)CCN(C(C)=O)C4)CC2)c1 | 342
CC(C)Nc1nc2c(nc1N1CCC(Oc3ccc(F)cc3F)CC1)CN(CC(F)F)CC2 | 200
CC(=O)N1CCc2nc(N3CCN(Cc4ccc(F)cc4F)CC3)c(N[C@H]3C[C@@H](O)C3)nc2C1 | 122
CC(C)Nc1nc2c(nc1N1CCC(Oc3ccc(F)cc3F)CC1)CCN(C(=O)C(F)F)C2 | 129

SMILES | IC50 [nM]
CC(=O)N1CCc2nc(N3CCC([C@@H](F)c4ccc(F)cc4F)CC3)c(NC(C)C)nc2C1 | 37.8
CC(=O)N1CCc2nc(N3CCN(Cc4ccc(F)cc4F)CC3)c(NC3CCC3)nc2C1 | 43.7
CC[C@@H](C)Nc1nc2c(nc1N1CCC(Oc3ccc(F)cc3F)CC1)CCN(C(C)=O)C2 | 319
CC(C)Nc1nc2c(nc1N1CCC([C@H](F)c3ccc(F)cc3F)CC1)CCN(C=O)C2 | 11.4
CC(C)Nc1nc2c(nc1N1CCN(Cc3ccc(F)cc3F)CC1)CCN(C(=O)C(C)C)C2 | 29
CC(=O)N1CCc2nc(N3CCN(Cc4ccc(F)cc4F)CC3)c(N[C@H]3CCOC3)nc2C1 | 97.8
CC(=O)N1CCc2nc(N3CCN(Cc4ccc(C#N)cc4F)CC3)c(NC(C)C)nc2C1 | 363
CC(=O)N1CCc2nc(N3CCC(Oc4ccc(F)cc4F)CC3)c(NC(C)C)nc2C1C (centres undefined) | 73.2
CC1c2nc(N3CCC(Oc4ccc(F)cc4F)CC3)c(NCC(F)F)nc2CCN1C(=O)C(F)F (centres undefined) | 193
CC(C)Nc1nc2c(nc1N1CCC(Oc3ccc(F)cc3F)CC1)CN(C=O)CC2 | 43.2
O=C(C(F)F)N1CCc2nc(NCC(F)F)c(N3CCC(Oc4ccc(F)cc4F)CC3)nc2C1 | 111
COc1ccc(OC2CCN(c3nc4c(nc3NC(C)C)CCN(C(C)=O)C4)CC2)c(F)c1 | 62.5
CC(=O)N1CCc2nc(N3CCC(Oc4ccc(F)cc4F)CC3)c(N[C@H]3C[C@@H](O)C3)nc2C1 | 61.5
CC(C)Nc1nc2c(nc1N1CCC(Oc3ccc(F)cc3F)CC1)CCN(C(=O)C1CC1)C2 | 340
CC(C)Nc1nc2c(nc1N1CCC(C(F)c3ccc(F)cc3F)CC1)CCN(C)C2 (centres undefined) | 30.3
COC(=O)N1CCc2nc(N3CCC(Oc4ccc(F)cc4F)CC3)c(NC(C)C)nc2C1 | 130
CC(=O)N1CCc2nc(N3CCC(Oc4ccc(F)cc4F)CC3)c(N[C@H]3C[C@H](O)C3)nc2C1 | 78
CC(C)Nc1nc2c(nc1N1CCC(Oc3ccc(F)cc3F)CC1)CN(CCF)CC2 | 69.2
CC1c2nc(NCC(F)F)c(N3CCC(Oc4ccc(F)cc4F)CC3)nc2CCN1C(=O)C(F)F (centres undefined) | 212
CC(=O)N1CCc2nc(N3CCN(Cc4ccc(F)cc4F)CC3)c(N[C@@H]3CCOC3)nc2C1 | 63.2
COCC(=O)N1CCc2nc(NCC(F)F)c(N3CCC(Oc4ccc(F)cc4F)CC3)nc2C1 | 79.5
CC1c2nc(N3CCC(Oc4ccc(F)cc4F)CC3)c(NCC(F)F)nc2CCN1C(=O)N(C)C (centres undefined) | 93.5

SMILES | IC50 [nM]
CS(=O)(=O)N1CCc2nc(NCC(F)F)c(N3CCC(Oc4ccc(F)cc4F)CC3)nc2C1 | 163
CCC(=O)N1CCc2nc(N3CCN(Cc4ccc(F)cc4F)CC3)c(NC(C)C)nc2C1 | 30.9
CC(C)Nc1nc2c(nc1N1CCC(Oc3ccc(F)cc3F)CC1)CN(C(=O)C1CC1)CC2 | 211
CC[C@H](C)Nc1nc2c(nc1N1CCC(Oc3ccc(F)cc3F)CC1)CCN(C(C)=O)C2 | 62
CC(=O)N1CCc2nc(NC(C)C)c(N3CCC(S(=O)(=O)c4cccc(F)c4)CC3)nc2C1 | 250
CC(C)Nc1nc2c(nc1N1CCC(C(F)c3ccc(F)cc3F)CC1)CN(C)CC2 (centres undefined) | 17.1
CC(=O)O[C@H]1C[C@H](Nc2nc3c(nc2N2CCC(Oc4ccc(F)cc4F)CC2)CCN(C(C)=O)C3)C1 | 604
CC(C)Nc1nc2c(nc1N1CCC(Oc3ccc(F)cc3F)CC1)C(C)N(C(=O)C(F)F)CC2 (centres undefined) | 116
COc1ccc(OC2CCN(c3nc4c(nc3NC(C)C)CN(C)CC4)CC2)c(F)c1 | 140
CC(C)Nc1nc2c(nc1N1CCC(Oc3ccc(F)cc3F)CC1)CCN(S(C)(=O)=O)C2C (centres undefined) | 59.3
CC(C)Nc1nc2c(nc1N1CCC(Oc3ccc(F)cc3F)CC1)CCN(C(=O)[C@@H]1CCCN1C)C2 | 78.1
CC(C)Nc1nc2c(nc1N1CCC(Oc3ccc(F)cc3F)CC1)CN(S(C)(=O)=O)CC2 | 95.6
CC(C)Nc1nc2c(nc1N1CCN(Cc3ccc(F)cc3F)CC1)CCN(S(C)(=O)=O)C2 | 27.9
CC(=O)N1CCc2nc(N3CCC(Oc4ccc(F)cc4F)CC3)c(NC3CCC3)nc2C1 | 55
CC(=O)N1CCc2nc(N3CCC([C@H](F)c4ccc(F)cc4F)CC3)c(NC(C)C)nc2C1 | 27.4
CC(=O)N1CCc2nc(NC(C)C)c(N3CCC(S(=O)(=O)c4ccccc4F)CC3)nc2C1 | 247
CCC(=O)N1CCc2nc(N3CCC(Oc4ccc(F)cc4F)CC3)c(NC(C)C)nc2C1 | 27.6
CCC(=O)N1CCc2nc(N3CCC(Oc4ccc(F)cc4F)CC3)c(N[C@H]3CCOC3)nc2C1 | 39.2
COCC(=O)N1CCc2nc(N3CCC(Oc4ccc(F)cc4F)CC3)c(NC(C)C)nc2C1 | 71.5
COc1ccc(S(=O)(=O)C2CCN(c3nc4c(nc3NC(C)C)CCN(C(C)=O)C4)CC2)c(F)c1 | 200
CC(=O)N1CCc2nc(N3CCN(Cc4ccc(F)cc4F)CC3)c(NC(C)C)nc2C1 | 27
